Common to all, as to experiment: biochemical
What all share (parameters): Reaction Biology HotSpot radiometric 33P-ATP catalytic assay at Km ATP; percent inhibition versus DMSO, mean n=2
What all share (conditions): Km ATP

The target in one experiment is STK17A (Homo sapiens, UniProt Q9UEE5). From the text:
(§1) Unreacted phosphate is removed via washing the filters.

For another experiment, the target named is HIPK1 (Homo sapiens, UniProt Q86Z02).
Text: as §1

Another experiment deals with T1, HASPIN (Homo sapiens, UniProt Q8TF76).
T1 sequence (Q8TF76 1-798): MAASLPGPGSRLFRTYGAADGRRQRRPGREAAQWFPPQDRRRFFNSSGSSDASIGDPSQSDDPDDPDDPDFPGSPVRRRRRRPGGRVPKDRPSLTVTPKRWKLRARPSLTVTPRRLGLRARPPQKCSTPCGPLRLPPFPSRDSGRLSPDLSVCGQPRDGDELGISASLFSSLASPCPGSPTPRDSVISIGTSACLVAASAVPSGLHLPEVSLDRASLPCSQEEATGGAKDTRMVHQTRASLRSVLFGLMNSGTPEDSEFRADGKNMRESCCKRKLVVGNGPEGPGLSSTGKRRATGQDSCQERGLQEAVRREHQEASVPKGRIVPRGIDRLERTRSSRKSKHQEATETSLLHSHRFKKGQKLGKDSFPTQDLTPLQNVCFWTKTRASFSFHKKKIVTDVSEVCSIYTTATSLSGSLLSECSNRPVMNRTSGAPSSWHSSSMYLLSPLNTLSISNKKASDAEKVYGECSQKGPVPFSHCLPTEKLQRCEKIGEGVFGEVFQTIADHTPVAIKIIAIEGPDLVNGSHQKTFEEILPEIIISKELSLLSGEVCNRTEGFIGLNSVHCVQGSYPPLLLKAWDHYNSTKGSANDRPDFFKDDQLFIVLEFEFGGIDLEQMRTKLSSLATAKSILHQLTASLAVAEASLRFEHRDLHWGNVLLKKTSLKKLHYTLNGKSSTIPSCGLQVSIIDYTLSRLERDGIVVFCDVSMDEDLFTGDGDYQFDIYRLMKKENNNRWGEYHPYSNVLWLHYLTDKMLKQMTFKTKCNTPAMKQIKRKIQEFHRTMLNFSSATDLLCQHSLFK
Text: as §1

For a further experiment, the target named is PIM2 (Homo sapiens, UniProt Q9P1W9).
Chain of PIM2 (Q9P1W9 whole entry): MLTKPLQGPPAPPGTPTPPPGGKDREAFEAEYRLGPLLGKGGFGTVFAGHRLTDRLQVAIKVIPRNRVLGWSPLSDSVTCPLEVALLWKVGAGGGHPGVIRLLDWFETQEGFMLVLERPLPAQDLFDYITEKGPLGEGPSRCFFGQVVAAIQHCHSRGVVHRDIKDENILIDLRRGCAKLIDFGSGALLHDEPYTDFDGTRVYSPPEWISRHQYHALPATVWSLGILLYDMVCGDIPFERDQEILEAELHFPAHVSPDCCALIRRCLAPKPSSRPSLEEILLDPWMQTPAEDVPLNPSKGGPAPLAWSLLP
Text: as §1

For another experiment, the target named is PIM3 (Homo sapiens, UniProt Q86V86).
Text: as §1

In another experiment the target is T2, LATS2 (Homo sapiens, UniProt Q9NRM7).
T2 sequence (Q9NRM7 1-1088): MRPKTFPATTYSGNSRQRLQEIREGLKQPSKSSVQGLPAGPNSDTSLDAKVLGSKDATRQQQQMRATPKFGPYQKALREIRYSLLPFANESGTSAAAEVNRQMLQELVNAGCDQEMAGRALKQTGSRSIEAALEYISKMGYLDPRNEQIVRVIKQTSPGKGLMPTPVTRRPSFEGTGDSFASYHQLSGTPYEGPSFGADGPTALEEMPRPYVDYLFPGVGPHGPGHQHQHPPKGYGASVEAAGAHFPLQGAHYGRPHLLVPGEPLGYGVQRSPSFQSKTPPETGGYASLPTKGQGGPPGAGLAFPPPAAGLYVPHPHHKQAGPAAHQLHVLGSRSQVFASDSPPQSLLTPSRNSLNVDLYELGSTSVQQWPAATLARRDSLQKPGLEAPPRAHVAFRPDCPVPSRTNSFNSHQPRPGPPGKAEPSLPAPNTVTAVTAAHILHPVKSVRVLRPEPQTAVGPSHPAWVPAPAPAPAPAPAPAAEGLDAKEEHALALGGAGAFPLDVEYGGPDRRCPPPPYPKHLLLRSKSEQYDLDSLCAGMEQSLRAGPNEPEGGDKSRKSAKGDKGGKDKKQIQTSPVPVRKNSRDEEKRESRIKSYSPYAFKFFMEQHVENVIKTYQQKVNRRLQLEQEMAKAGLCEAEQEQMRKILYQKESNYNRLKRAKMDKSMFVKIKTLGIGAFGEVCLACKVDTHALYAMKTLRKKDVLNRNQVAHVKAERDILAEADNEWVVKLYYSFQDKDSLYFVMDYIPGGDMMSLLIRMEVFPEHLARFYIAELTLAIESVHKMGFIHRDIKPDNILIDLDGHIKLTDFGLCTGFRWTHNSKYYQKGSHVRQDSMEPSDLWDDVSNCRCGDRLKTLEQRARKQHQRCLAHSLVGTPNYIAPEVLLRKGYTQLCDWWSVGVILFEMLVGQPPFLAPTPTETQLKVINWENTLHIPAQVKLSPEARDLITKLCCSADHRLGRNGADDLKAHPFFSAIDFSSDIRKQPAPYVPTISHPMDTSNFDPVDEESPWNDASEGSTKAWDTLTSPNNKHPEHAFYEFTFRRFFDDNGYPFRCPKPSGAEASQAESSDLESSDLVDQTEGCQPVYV
Text: as §1

For the next experiment, the target named is T3, MYLK4 (Homo sapiens, UniProt Q86YV6).
T3 sequence (Q86YV6 1-388): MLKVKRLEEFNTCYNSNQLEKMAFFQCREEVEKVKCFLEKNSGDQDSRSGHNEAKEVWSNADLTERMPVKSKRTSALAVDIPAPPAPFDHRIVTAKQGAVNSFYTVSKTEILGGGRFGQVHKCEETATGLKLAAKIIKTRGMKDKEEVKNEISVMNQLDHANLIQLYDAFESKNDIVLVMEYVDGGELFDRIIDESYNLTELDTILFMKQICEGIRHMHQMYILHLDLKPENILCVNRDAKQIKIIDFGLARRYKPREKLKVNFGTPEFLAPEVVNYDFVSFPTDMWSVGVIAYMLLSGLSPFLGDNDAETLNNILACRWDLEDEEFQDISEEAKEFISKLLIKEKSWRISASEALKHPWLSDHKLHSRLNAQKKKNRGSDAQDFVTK
Text: as §1

Chain of HIPK1 (Q86Z02 whole entry): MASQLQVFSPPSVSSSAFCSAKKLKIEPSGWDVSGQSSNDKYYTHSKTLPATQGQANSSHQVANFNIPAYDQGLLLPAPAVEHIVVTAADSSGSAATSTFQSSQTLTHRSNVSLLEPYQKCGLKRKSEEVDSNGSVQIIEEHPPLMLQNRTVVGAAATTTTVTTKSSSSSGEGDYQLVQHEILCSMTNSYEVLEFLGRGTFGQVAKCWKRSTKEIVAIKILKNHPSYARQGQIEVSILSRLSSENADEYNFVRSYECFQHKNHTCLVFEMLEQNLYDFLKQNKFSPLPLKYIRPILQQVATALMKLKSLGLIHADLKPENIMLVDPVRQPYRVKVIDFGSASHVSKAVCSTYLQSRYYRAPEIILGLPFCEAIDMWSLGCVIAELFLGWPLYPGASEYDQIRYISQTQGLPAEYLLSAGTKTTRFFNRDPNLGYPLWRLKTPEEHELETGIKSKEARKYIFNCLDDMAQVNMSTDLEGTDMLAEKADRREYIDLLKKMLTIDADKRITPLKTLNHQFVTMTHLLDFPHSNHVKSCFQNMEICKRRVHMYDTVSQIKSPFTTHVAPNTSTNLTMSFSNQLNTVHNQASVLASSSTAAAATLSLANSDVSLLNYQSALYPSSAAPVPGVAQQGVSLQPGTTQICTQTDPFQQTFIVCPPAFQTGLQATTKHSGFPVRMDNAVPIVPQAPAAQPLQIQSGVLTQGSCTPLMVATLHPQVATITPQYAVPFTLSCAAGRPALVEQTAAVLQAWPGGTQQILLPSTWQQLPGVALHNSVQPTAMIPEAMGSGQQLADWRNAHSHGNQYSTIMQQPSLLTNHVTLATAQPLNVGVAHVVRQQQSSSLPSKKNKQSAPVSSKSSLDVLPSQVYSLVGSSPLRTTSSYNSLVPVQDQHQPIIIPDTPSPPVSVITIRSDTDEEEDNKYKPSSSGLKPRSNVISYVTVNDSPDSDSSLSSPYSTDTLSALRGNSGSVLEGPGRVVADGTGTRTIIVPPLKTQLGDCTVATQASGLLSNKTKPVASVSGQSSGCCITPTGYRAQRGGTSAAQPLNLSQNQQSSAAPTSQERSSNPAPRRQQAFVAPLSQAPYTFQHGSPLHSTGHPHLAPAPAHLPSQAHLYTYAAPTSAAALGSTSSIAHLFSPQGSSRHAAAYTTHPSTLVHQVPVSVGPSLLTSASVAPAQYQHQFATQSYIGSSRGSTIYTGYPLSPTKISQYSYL
Chain of STK17A (Q9UEE5 whole entry): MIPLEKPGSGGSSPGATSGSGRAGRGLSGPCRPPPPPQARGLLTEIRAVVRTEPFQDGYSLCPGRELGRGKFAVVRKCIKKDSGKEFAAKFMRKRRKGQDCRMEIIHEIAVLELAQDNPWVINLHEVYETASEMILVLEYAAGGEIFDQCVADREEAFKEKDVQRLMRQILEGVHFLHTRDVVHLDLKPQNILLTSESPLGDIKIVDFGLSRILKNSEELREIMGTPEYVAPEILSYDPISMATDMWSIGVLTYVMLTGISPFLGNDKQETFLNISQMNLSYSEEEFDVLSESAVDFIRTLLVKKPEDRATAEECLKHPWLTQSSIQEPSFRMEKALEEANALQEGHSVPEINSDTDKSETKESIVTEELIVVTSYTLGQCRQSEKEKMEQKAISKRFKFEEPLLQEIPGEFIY

Take `CNCc1ccc(-c2[nH]c3cc(F)cc4c3c2CCNC4=O)cc1` [Rucaparib]: the results for the inhibition at 1 µM against STK17A, against HIPK1 and against HASPIN were -6%, -16% and -6%, respectively.

Take `NC(=O)c1cccc2cn(-c3ccc([C@@H]4CCCNC4)cc3)nc12` [Niraparib]: the inhibition at 1 µM against PIM2 was -5%; on PIM3 it was 15%; on LATS2 it was 17%; on HASPIN, 10%; on MYLK4 it was 19%.

The values above are taken from paper PMC7026418, “The kinase polypharmacology landscape of clinical PARP inhibitors” (Scientific Reports, 2020).
